# Test results published in US10590113B2, “6-hydroxy-4-oxo-1,4-dihydropyrimidine-5-carboxamides as APJ agonists” (priority 2016, dated 2020).
# Molecular target: T1, human APJ receptor (Homo sapiens, UniProt P35414)
# T1 construct: expressed in transfected cells; host or cells: HEK293
# T1 sequence (P35414 1-380): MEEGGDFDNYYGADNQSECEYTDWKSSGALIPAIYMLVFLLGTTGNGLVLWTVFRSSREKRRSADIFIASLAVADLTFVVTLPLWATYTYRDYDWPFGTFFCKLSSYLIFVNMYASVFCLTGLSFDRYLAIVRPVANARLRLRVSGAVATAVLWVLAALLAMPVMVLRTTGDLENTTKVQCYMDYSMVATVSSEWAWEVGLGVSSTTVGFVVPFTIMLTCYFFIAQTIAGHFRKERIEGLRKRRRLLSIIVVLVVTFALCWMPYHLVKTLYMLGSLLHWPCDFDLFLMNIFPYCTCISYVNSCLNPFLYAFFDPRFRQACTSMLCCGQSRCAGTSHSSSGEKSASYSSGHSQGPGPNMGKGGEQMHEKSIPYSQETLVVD
# Assay: Intracellular cAMP Accumulation Assay (APJ hcAMP, HTRF)
# Type: cell-based
# Conditions: human APJ, cAMP accumulation; potency range class; read-out: hAPJ cAMP EC50 Potency range
# In short: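 Stably transfected HEK293 cells (5,000/well) incubated 30 min at room temperature with serially diluted compound, […] and 2 μM forskolin. cAMP measured by HTRF after 60 min with detection reagents, quantified against a cAMP standard curve; EC50 from variable-slope sigmoidal fit of inhibition of forskolin-stimulated cAMP.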
row,Compound,EC50 [nM]
1,"COc1cccc(OC)c1-n1c(-c2ccnc(C)c2)nc(=O)c(C(=O)N2CCC(c3ccc(F)cc3F)C2)c1O (single isomer, unassigned) [Example 254, 5-[3-(2,4-difluorophenyl)pyrrolidine-1-carbonyl]-1-(2,6-dimethoxyphenyl)-6-hydroxy-2-(2-methylpyridin-4-yl)-1,4-dihydropyrimidin-4-one]",0.01 to 10
2,"COc1cccc(OC)c1-n1c(-c2ccc(F)cc2)nc(=O)c(C(=O)N2CCC(c3ccc(Cl)cc3)C2)c1O (single isomer, unassigned) [Example 223]",10 to 100
3,"COc1cccc(OC)c1-n1c(-c2csc(C)n2)nc(=O)c(C(=O)N2CCC(Oc3cccc(F)c3F)CC2)c1O [Example 277, 5-[4-(2,3-difluorophenoxy)piperidine-1-carbonyl]-1-(2,6-dimethoxyphenyl)-6-hydroxy-2-(2-methyl-1,3-thiazol-4-yl)-1,4-dihydropyrimidin-4-one]",0.01 to 10
4,"COc1cccc(OC)c1-n1c(CC2CC2)nc(=O)c(C(=O)N2CCC(c3ccc(Cl)nc3)CC2)c1O [Example 227, 5-[4-(6-chloropyridin-3-yl)piperidine-1-carbonyl]-2-(cyclopropylmethyl)-1-(2,6-dimethoxyphenyl)-6-hydroxy-1,4-dihydropyrimidin-4-one]",10 to 100

# Results, then the molecule that gave them:
row,EC50 [nM],Compound
1,0.01 to 10,"CCc1cccc(CC)c1-n1c(-c2cnn(CC)c2)nc(=O)c(C(=O)N2CCC(c3ncc(Cl)cc3F)C2)c1O (single isomer, unassigned) [Example 313, 5-[3-(5-chloro-3-fluoropyridin-2-yl)pyrrolidine-1-carbonyl]-1-(2,6-diethylphenyl)-2-(1-ethyl-1H-pyrazol-4-yl)-6-hydroxy-1,4-dihydropyrimidin-4-one]"
2,0.01 to 10,"CCc1cccc(CC)c1-n1c(-c2ccn(C(C)C)n2)nc(=O)c(C(=O)N2CC[C@@H](c3ccccc3)C2)c1O [Example 289, 1-(2,6-diethylphenyl)-6-hydroxy-5-[(3S)-3-phenylpyrrolidine-1-carbonyl]-2-[1-(propan-2-yl)-1H-pyrazol-3-yl]-1,4-dihydropyrimidin-4-one]"
3,0.01 to 10,"COc1cccc(OC)c1-n1c(-c2cccc(C)n2)nc(=O)c(C(=O)N2CCC(c3ccccc3F)C2)c1O (single isomer, unassigned) [Example 236, 1-(2,6-dimethoxyphenyl)-5-[3-(2-fluorophenyl)pyrrolidine-1-carbonyl]-6-hydroxy-2-(6-methylpyridin-2-yl)-1,4-dihydropyrimidin-4-one]"
4,0.01 to 10,"COc1cccc(OC)c1-n1c(-c2cccc(C)c2)nc(=O)c(C(=O)N2CCC(c3ccccc3C#N)C2)c1O (single isomer, unassigned) [Example 242, 2-{1-[1-(2,6-dimethoxyphenyl)-6-hydroxy-2-(3-methylphenyl)-4-oxo-1,4-dihydropyrimidine-5-carbonyl]pyrrolidin-3-yl}benzonitrile]"
5,0.01 to 10,"CCc1cccc(CC)c1-n1c(-c2nc(C)cs2)nc(=O)c(C(=O)N2CCC(c3ncccc3F)C2)c1O (single isomer, unassigned) [Example 307, 1-(2,6-diethylphenyl)-5-[3-(3-fluoropyridin-2-yl)pyrrolidine-1-carbonyl]-6-hydroxy-2-(4-methyl-1,3-thiazol-2-yl)-1,4-dihydropyrimidin-4-one]"
6,10 to 100,"CCCc1nc(=O)c(C(=O)N2CC[C@@H](c3ccccc3)C2)c(O)n1[C@@H](COC)c1ccccc1 [Example 330, 6-hydroxy-3-[(1R)-2-methoxy-1-phenylethyl]-5-[(3S)-3-phenylpyrrolidine-l-carbonyl]-2-propyl-3,4-dihydropyrimidin-4-one]"

# Same assay, conditions: human APJ, intracellular cAMP accumulation; read-out: hAPJ cAMP EC50 Potency range
row,Compound,EC50 [nM]
1,"CC[C@@H](c1cc(F)cc(F)c1)n1c(-c2nc(C)cs2)nc(=O)c(C(=O)N2CCC(c3cc(F)ccn3)C2)c1O (single isomer, unassigned) [Example 205]",0.01 to 10
2,"CCCCc1nc(=O)c(C(=O)N2Cc3ccc(F)cc3C2)c(O)n1-c1c(OC)cccc1OC [Example 56, 2-butyl-1-(2,6-dimethoxyphenyl)-5-(5-fluoro-2,3-dihydro-1H-isoindole-2-carbonyl)-6-hydroxy-1,4-dihydropyrimidin-4-one]",0.01 to 10
3,"COc1cccc(OC)c1-n1c(CCC2CC2)nc(=O)c(C(=O)N2CCC(c3ncc(F)cc3F)C2)c1O (single isomer, unassigned) [Example 168, 2-(2-cyclopropylethyl)-5-[3-(3,5-difluoropyridin-2-yl)pyrrolidine-1-carbonyl]-1-(2,6-dimethoxyphenyl)-6-hydroxy-1,4-dihydropyrimidin-4-one]",0.01 to 10
4,"CC[C@@H](c1cc(F)cc(F)c1)n1c(-c2ccn(CC)n2)nc(=O)c(C(=O)N2CCC(c3ncc(F)cc3F)C2)c1O (single isomer, unassigned) [Example 215]",0.01 to 10
5,"CC[C@@H](c1cc(F)cc(F)c1)n1c(-c2nc(C)cs2)nc(=O)c(C(=O)N2CCC(c3ncccc3F)C2)c1O (single isomer, unassigned) [Example 204]",0.01 to 10
6,"CCCCc1nc(=O)c(C(=O)N2Cc3cccnc3C2)c(O)n1-c1c(OC)cccc1OC [Example 61, 2-butyl-1-(2,6-dimethoxyphenyl)-6-hydroxy-5-{5H,6H,7H-pyrrolo[3,4-b]pyridine-6-carbonyl}-1,4-dihydropyrimidin-4-one]",10 to 100

# Results, then the molecule that gave them:
row,EC50 [nM],Compound
1,0.01 to 10,"CCc1cccc(CC)c1-n1c(COC(C)C)nc(=O)c(C(=O)N2CCC(c3ccccc3F)C2)c1O (single isomer, unassigned) [Example 25, 1-(2,6-diethylphenyl)-5-(3-(2-fluorophenyl)pyrrolidine-1-carbonyl)-6-hydroxy-2-(isopropoxymethyl) pyrimidin-4(1H)-one]"
2,10 to 100,"CCCCc1nc(=O)c(C(=O)N2CC[C@@H](c3ccccc3)C2)c(O)n1C(C)c1cccnc1 (stereo partly drawn) [Example 146, 2-butyl-6-hydroxy-5-[(3S)-3-phenylpyrrolidine-1-carbonyl]-3-[1-(pyridin-3-yl)ethyl]-3,4-dihydropyrimidin-4-one]"
3,0.01 to 10,"COc1cccc(OC)c1-n1c(CCC2CC2)nc(=O)c(C(=O)N2CCC(c3ccc(F)cn3)C2)c1O (single isomer, unassigned) [Example 175, 2-(2-cyclopropylethyl)-1-(2,6-dimethoxyphenyl)-5-[3-(5-fluoropyridin-2-yl)pyrrolidine-1-carbonyl]-6-hydroxy-1,4-dihydropyrimid in-4-one]"
4,10 to 100,"CCCCc1nc(=O)c(C(=O)N2CC[C@H](c3ccccc3)C2)c(O)n1[C@@H](C)c1cccc(C#N)c1 [Example 138, 3-[(1S)-1-{2-butyl-4-hydroxy-6-oxo-5-[(3R)-3-phenylpyrrolidine-1-carbonyl]-1,6-dihydropyrimidin-1-yl}ethyl]benzonitrile]"
5,10 to 100,"CCCCc1nc(=O)c(C(=O)N2CC[C@H](c3ccccc3)C2)c(O)n1C(C)C [Example 150, 2-butyl-6-hydroxy-5-[(3R)-3-phenylpyrrolidine-1-carbonyl]-3-(propan-2-yl)-3,4-dihydropyrimidin-4-one]"

# Same assay, conditions: read-out: hAPJ cAMP EC50 Potency range
row,EC50 [nM],Compound
1,0.01 to 10,"CCOCc1nc(=O)c(C(=O)N2CC[C@H](OCc3ccccc3)C2)c(O)n1-c1c(OC)cccc1OC [Example 376, (S)-5-(3-(benzyloxy)pyrrolidine-1-carbonyl)-1-(2,6-dimethoxyphenyl)-2-(ethoxymethyl)-6-hydroxypyrimidin-4(1H)-one]"
2,0.01 to 10,"CCCCc1nc(=O)c(C(=O)N2CCC(c3ccc(F)cn3)C2)c(O)n1-c1c(OC)cccc1OC (single isomer, unassigned) [Example 370, 2-butyl-1-(2,6-dimethoxyphenyl)-5-(3-(5-fluoropyridin-2-yl)pyrrolidine-1-carbonyl)-6-hydroxypyrimidin-4(1H)-one]"
3,0.01 to 10,"CCCCc1nc(=O)c(C(=O)N2CCC(Cc3ccc(C(F)(F)F)cc3)CC2)c(O)n1-c1c(OC)cccc1OC [Example 380, 2-butyl-1-(2,6-dimethoxyphenyl)-6-hydroxy-5-(4-(4-(trifluoromethyl)benzyl)piperidine-1-carbonyl)pyrimidin-4(1H)-one]"
